This note sets out measurements from patent US12479843B2, “Spiro ring-containing quinazoline compounds” (WIGEN BIOMEDICINE TECHNOLOGY (SHANGHAI) CO., LTD., priority 2019, dated 2025).

Molecules are shown by their SMILES. A value given as a limit tells only on which side of the number the result lay.

As a reminder, the inhibition is the percentage by which the read-out fell short of the control. As usually defined, the IC50 is the point on the concentration scale where inhibition reaches its midpoint.

In one assay the test system is pERK level in H358 cells. In words: pERK and ERK protein content assay in H358 cells (ELISA). It is filed as cell-based. As to conditions: Homo sapiens, NCI-H358, compound 1 μM, 24 h, pERK/ERK ratio compared with DMSO group, read-out: Inhibition rate (%) of pERK level. In a few lines: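 H358 cells grown one day, then treated 24 h with compound at 1 μM. pERK and ERK in lysates measured by ELISA; pERK/ERK ratio expressed as percent inhibition versus DMSO.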
In general terms: In an ELISA, binding on a coated surface is turned into a signal by an enzyme label.

The next assay deals with H358 cells. In words: Antiproliferative activity against H358 cells (Cell Titer Glow, ultra-low attachment plate). The note with it: Homo sapiens, NCI-H358, 72 h, 96-well ultra-low attachment plate, three days after addition of compound, Cell Titer Glow. It is filed as cell-based. Here is the method:
2500 H358 cells were seeded in a 96-well ultra-low attachment plate (corning, 7007). After one day of growth, a serially diluted compound (a maximum concentration of 5 μM, 5-fold dilution, a total of five doses) was added. Three days after the addition of the compound, Cell Titer Glow (Promega, G9681) was added to evaluate pellet growth, and the IC50 value was calculated.

Consider `C=CC(=O)N1CC2(CCN(c3nc(OC4CCN(CCOC)CC4)nc4c(OCC(F)(F)F)c(-c5c(C)ccc6cc[nH]c(=O)c56)c(C5CC5)cc34)CC2)C1` [Compound 41], for which the inhibition at 1 µM in the assay on pERK level in H358 cells is > 90%. Further, the IC50 in the assay on H358 cells was < 300 nM.
For the compound `C=C(C#N)C(=O)N1CC2(CCN(c3nc(OC4CCN(CCOC)CC4)nc4c(OCC(F)(F)F)c(-c5c(C)ccc6[nH]ncc56)c(C5CC5)cc34)CC2)C1` [Compound 18], the inhibition at 1 µM in the assay with pERK level in H358 cells lay in the range of 50 to 90%. In the assay on H358 cells, this compound returned a concentration for half-maximal inhibition (IC50) of 300 to 1000 nM.
For `C=CC(=O)N1CC2(CCN(c3nc(N4CC[C@H](N5CCC5)C4)nc4c(OCC(F)(F)F)c(-c5c(C)ccc6[nH]ncc56)c(C5CC5)cc34)CC2)C1` [Compound 181], in that order: > 90% and < 300 nM.
For `C=CC(=O)N1CC2(CCN(c3nc(N4CC(N5CC(N(C)C)C5)C4)nc4c(OCC(F)(F)F)c(-c5c(C)ccc6[nH]ncc56)c(C5CC5)cc34)CC2)C1` [Compound 244] the same measures were > 90% and < 300 nM.
`C=CC(=O)N1CC2(CCN(c3nc(N4CC[C@H](N5CC[C@@H](OC)C5)C4)nc4c(OCC(F)(F)F)c(-c5c(C)ccc6[nH]ncc56)c(C5CC5)cc34)CC2)C1` [Compound 197]: in the assay on pERK level in H358 cells, the inhibition at 1 µM is > 90%. Besides, the IC50 in the assay with H358 cells is < 300 nM.
For `C=CC(=O)N1CC2(CCN(c3nc(N4CC5(CC(O)C5)C4)nc4c(OCC(F)(F)F)c(-c5c(C)ccc6[nH]ncc56)c(C5CC5)cc34)CC2)C1` [Compound 282] the same measures were > 90% and < 300 nM.
For `C=CC(=O)N1CC2(CCN(c3nc(N4CC(N5CCC(C)C5)C4)nc4c(OCC(F)(F)F)c(-c5c(C)c(C)cc6[nH]ncc56)c(C5CC5)cc34)CC2)C1` (centres unmarked) [Compound 324], in that order: > 90% and < 300 nM.
`C=CC(=O)N1CC2(CCN(c3nc(N4CC5(CCN(C)C5)C4)nc4c(OCC(F)(F)F)c(-c5c(C)ccc6[nH]ncc56)c(C5CC5)cc34)CC2)C1` [Compound 73]: in the assay with pERK level in H358 cells, the inhibition at 1 µM is > 90%. Besides, the 50% inhibitory concentration (IC50) in the assay with H358 cells is < 300 nM.
For `C=C(F)C(=O)N1CC2(CCN(c3nc(N4CC(N5CCC5)C4)nc4c(OCC(F)(F)F)c(-c5c(C)ccc6[nH]ncc56)c(C5CC5)cc34)CC2)C1` [Compound 143] the same measures were > 90% and < 300 nM.
For `C=CC(=O)N1CC2(CCN(c3nc(N4CC[C@@H](N5CCC(OC)CC5)C4)nc4c(OCC(F)(F)F)c(-c5c(C)ccc6[nH]ncc56)c(C5CC5)cc34)CC2)C1` [Compound 214] the same measures were 50 to 90% and 300 to 1000 nM.
For `C=C(F)C(=O)N1CC2(CCN(c3nc(N4CC5(COC5)C4)nc4c(OCC(F)(F)F)c(-c5c(C)ccc6[nH]ncc56)c(C5CC5)cc34)CC2)C1` [Compound 68] the same measures were 50 to 90% and 300 to 1000 nM.
On to `C=CC(=O)N1CC2(CCN(c3nc(N(C)CCN4CC[C@H](O)C4)nc4c(OCC(F)(F)F)c(-c5c(C)ccc6[nH]ncc56)c(C5CC5)cc34)CC2)C1` [Compound 234], for which the inhibition at 1 µM in the assay with pERK level in H358 cells was > 90%. The half-inhibitory concentration (IC50) with H358 cells is < 300 nM.
In the case of `C=CC(=O)N1CC2(CCN(c3nc(N4CC[C@@H](N5CCC(F)CC5)C4)nc4c(OCC(F)(F)F)c(-c5c(C)ccc6[nH]ncc56)c(C5CC5)cc34)CC2)C1` [Compound 212], the inhibition at 1 µM with pERK level in H358 cells is > 90%. In the assay on H358 cells, the half-maximal inhibitory concentration (IC50) is < 300 nM.
For `C=CC(=O)N1CC2(CCN(c3nc(N4CC5(CC(OC)C5)C4)nc4c(OCC(F)(F)F)c(-c5c(C)ccc6[nH]ncc56)c(C5CC5)cc34)CC2)C1` [Compound 283], in that order: 50 to 90% and 300 to 1000 nM.
For the compound `C=CC(=O)N1CC2(CCN(c3nc(N4CC5(CCN(C)CC5)C4)nc4c(OCC(F)(F)F)c(-c5c(C)ccc6[nH]ncc56)c(C5CC5)cc34)CC2)C1` [Compound 77], the inhibition at 1 µM in the assay on pERK level in H358 cells fell in the range of 50 to 90%. In the assay with H358 cells, this compound registered an IC50 of 300 to 1000 nM.
On to `C=CC(=O)N1CC2(CCN(c3nc(N4CC5(COC5)C4)nc4c(OCC(F)(F)F)c(-c5c(C)ccc6[nH]ncc56)c(C5CC5)cc34)CC2)C1` [Compound 67], for which, in the assay with pERK level in H358 cells, the inhibition at 1 µM was 50 to 90%. Besides, the concentration for half-maximal inhibition (IC50) with H358 cells is 300 to 1000 nM.
For `C=CC(=O)N1CC2(CCN(c3nc(N4CC[C@H](N5CC(C)C5)C4)nc4c(OCC(F)(F)F)c(-c5c(C)ccc6[nH]ncc56)c(C5CC5)cc34)CC2)C1` [Compound 296] the same measures were > 90% and < 300 nM.
For `C=CC(=O)N1CC2(CCN(c3nc(OC4CCN(CCOC)CC4)nc4c(OCC(F)(F)F)c(-c5c(C)ccc6[nH]ncc56)c(Cl)cc34)CC2)C1` [Compound 12], in that order: > 90% and < 300 nM.
For `C=CC(=O)N1CC2(CCN(c3nc(OC4CCS(=O)(=O)C5(CC5)C4)nc4c(OCC(F)(F)F)c(-c5c(C)ccc6[nH]ncc56)c(C5CC5)cc34)CC2)C1` (centres unmarked) [Compound 310] the same measures were 50 to 90% and 300 to 1000 nM.
In the case of `C=CC(=O)N1CC2(CCN(c3nc(N4CC5(CCN(CCOC)CC5)C4)nc4c(OCC(F)(F)F)c(-c5c(C)ccc6[nH]ncc56)c(C5CC5)cc34)CC2)C1` [Compound 91], the inhibition at 1 µM in the assay with pERK level in H358 cells was > 90%. Moreover, in the assay with H358 cells, the IC50 is < 300 nM.
For `C=CC(=O)N1CC2(CCN(c3nc(OC4CCN(CCOC)CC4)nc4c(OCC(F)(F)F)c(-c5ccc(F)cc5F)c(C5CC5)cc34)CC2)C1` [Compound 56], in that order: > 90% and < 300 nM.
For `C=CC(=O)N1CC2(CCN(c3nc(OC4CCN(CCOC)CC4)nc4c(OCC(F)(F)F)c(-c5ccccc5C(F)(F)F)c(C5CC5)cc34)CC2)C1` [Compound 55] the same measures were > 90% and < 300 nM.
For `C=CC(=O)N1CC2(CCN(c3nc(O[C@H]4CCS(=O)(=O)C[C@@H]4N(C)C)nc4c(OCC(F)(F)F)c(-c5c(C)ccc6[nH]ncc56)c(C5CC5)cc34)CC2)C1` [Compound 319] the same measures were > 90% and < 300 nM.
Consider `C=CC(=O)N1CC2(CCN(c3nc(N4CC5(CCN(CCC#N)CC5)C4)nc4c(OCC(F)(F)F)c(-c5c(C)ccc6[nH]ncc56)c(C5CC5)cc34)CC2)C1` [Compound 87], for which the inhibition at 1 µM in the assay with pERK level in H358 cells is > 90%. In addition, the IC50 in the assay on H358 cells was < 300 nM.
For `C=CC(=O)N1CC2(CCN(c3nc(N4CC(N5C[C@H](OC)[C@@H](F)C5)C4)nc4c(OCC(F)(F)F)c(-c5c(C)ccc6[nH]ncc56)c(C5CC5)cc34)CC2)C1` [Compound 263], in that order: > 90% and < 300 nM.
For `C=C(F)C(=O)N1CC2(CCN(c3nc(N4CC(N(C)CCOC)C4)nc4c(OCC(F)(F)F)c(-c5c(C)ccc6[nH]ncc56)c(C5CC5)cc34)CC2)C1` [Compound 141] the same measures were > 90% and < 300 nM.
For `C=CC(=O)N1CC2(CCN(c3nc(N(C)CCN(C)C)nc4c(OCC(F)(F)F)c(-c5c(C)ccc6[nH]ncc56)c(C5CC5)cc34)CC2)C1` [Compound 225], in that order: > 90% and < 300 nM.
`C=CC(=O)N1CC2(C1)CN(c1nc(OC3CCN(CCOC)CC3)nc3c(OCC(F)(F)F)c(-c4c(C)ccc5[nH]ncc45)c(C4CC4)cc13)C2` [Compound 26]: the inhibition at 1 µM in the assay on pERK level in H358 cells fell in the range of 50 to 90%. This compound also showed an IC50 in the assay on H358 cells of 300 to 1000 nM.
As for `C=CC(=O)N1CC2(CCN(c3nc(N4CC(N5C[C@@H](O)[C@@H](F)C5)C4)nc4c(OCC(F)(F)F)c(-c5c(C)ccc6[nH]ncc56)c(C5CC5)cc34)CC2)C1` [Compound 262], in the assay with pERK level in H358 cells, the inhibition at 1 µM is > 90%. In addition, the 50% inhibitory concentration (IC50) in the assay on H358 cells was < 300 nM.
For `C=CC(=O)N1CC2(CCN(c3nc(N4CC[C@@H](N5CC(F)(F)C5)C4)nc4c(OCC(F)(F)F)c(-c5c(C)ccc6[nH]ncc56)c(C5CC5)cc34)CC2)C1` [Compound 206], in that order: 50 to 90% and 300 to 1000 nM.
For `C=CC(=O)N1CC2(CCN(c3nc(OC4CC5CCC(C4)S5(=O)=O)nc4c(OCC(F)(F)F)c(-c5c(C)ccc6[nH]ncc56)c(C5CC5)cc34)CC2)C1` (centres unmarked) [Compound 312], in that order: > 90% and < 300 nM.
For `C=CC(=O)N1CC2(CCN(c3nc(N4CC5(CC(N6CCC[C@H]6C)C5)C4)nc4c(OCC(F)(F)F)c(-c5c(C)ccc6[nH]ncc56)c(C5CC5)cc34)CC2)C1` [Compound 291], the inhibition at 1 µM with pERK level in H358 cells was > 90%. Also, in the assay on H358 cells, the half-maximal inhibitory concentration (IC50) was < 300 nM.
For `C=CC(=O)N1CC2(CCN(c3nc(N4CC5(CCN(C6COC6)CC5)C4)nc4c(OCC(F)(F)F)c(-c5c(C)ccc6[nH]ncc56)c(C5CC5)cc34)CC2)C1` [Compound 89], in that order: > 90% and < 300 nM.
For `C=CC(=O)N1CC2(CCN(c3nc(N4CC5(C4)[C@@H](O)CCN5C)nc4c(OCC(F)(F)F)c(-c5c(C)ccc6[nH]ncc56)c(C5CC5)cc34)CC2)C1` [Compound 271], in that order: > 90% and < 300 nM.
For `C=CC(=O)N1CC2(CCN(c3nc(OC4CCN(CCOC)CC4)nc4c(OCC(F)(F)F)c(-c5cc(O)cc6ccccc56)c(C5CC5)cc34)CC2)C1` [Compound 60] the same measures were > 90% and < 300 nM.
For the compound `C=CC(=O)N1CC2(CCN(c3nc(N4CC(N5CC(OCC)C5)C4)nc4c(OCC(F)(F)F)c(-c5c(C)ccc6[nH]ncc56)c(C5CC5)cc34)CC2)C1` [Compound 170], in the assay with pERK level in H358 cells, the inhibition at 1 µM was 50 to 90%. Further, in the assay with H358 cells, the half-inhibitory concentration (IC50) lay within 300 to 1000 nM.
For `C=C(F)C(=O)N1CC2(CCN(c3nc(OC4CCN(C5COC5)CC4)nc4c(OCC(F)(F)F)c(-c5c(C)ccc6[nH]ncc56)c(C5CC5)cc34)CC2)C1` [Compound 62] the same measures were > 90% and < 300 nM.
